Data on 98 molecules can be found in ChEMBL document CHEMBL3507680, “University of Dundee, Gates Library screen for HepG2 cell viability”.

A short description of the data set: Human HepG2 cell viability assay in 384 well format. The following applies: HepG2 cells, read-out: Inhibition. It is filed as toxicity, cell-based. Also noted: dose 125 nL, time 70.5 hour; concentration not given beside the values.
For `COc1ccc(CCNC(=O)CN2CCOCS2(=O)=O)cc1`, the cytotoxicity at 70.5 h is -8.13%.
As for `CC(=O)N1CCC(NC(C)c2cnn(-c3ccc(F)cc3F)c2C)CC1` (stereo not drawn), the figure is -5.65%; as for `COCCN1CC(Nc2nc(C(C)C)nc3c2cnn3C)CC1=O` (stereo not drawn), -0.509%; as for `Cc1nn(C)c(C)c1CN(C)C(C(=O)O)c1ccc(F)cc1F` (stereo not drawn), -1.85%.
For `CCC1CCC(NCCN2CCOCC2)CC1` (stereo not drawn), the cytotoxicity at 70.5 h is -6.57%.
As to `CC1CCCN(Cc2cccc(C(=O)Nc3nccs3)c2)C1` (stereo not drawn), the cytotoxicity at 70.5 h was -11.3%.
As for `Cc1cccnc1CNCC1(O)CCCN(CC2CCC2)C1=O` (stereo not drawn), the figure is 2.29%; as for `CN(CCNC(=O)c1cnc(-c2ccccc2)nc1)S(C)(=O)=O`, 5.47%.
Turning to `Cn1ncnc1-c1ccnc(NCc2ccccn2)n1`, the cytotoxicity at 70.5 h was 9.26%.
Turning to `O=C(CCN1CCCO1)N1CCCC(CO)(CCCc2ccccc2)C1` (stereo not drawn), the cytotoxicity at 70.5 h was -8.66%.
Regarding `O=C1OC2(CCN(C(=O)C3NCCc4[nH]cnc43)CC2)c2ccccc21` (stereo not drawn), the cytotoxicity at 70.5 h was -9.73%.
The value for `Cc1cc(NC(C)c2nncn2C2CCCC2)n2nc(C)c(C)c2n1` (stereo not drawn) was -12.4%.
Take `CC[C@H]1COCCN1C(=O)c1ccc(OC)c(N2CCOCC2)c1`: the cytotoxicity at 70.5 h was -10.3%.
On to `OCCN(Cc1ccccc1)Cc1ccsc1`, for which the cytotoxicity at 70.5 h is -9.98%.
As for `O=c1c(CN2CCOCC2)coc2ccc(Cl)cc12`, the figure is -8.39%; as for `Cc1nc(CCN)cc(N2CCOc3ccc(Cl)cc3C2)n1`, -5.61%; as for `CN1CCN(Cc2ccc(Cl)cc2)CC1C(=O)O` (stereo not drawn), -6.51%.
With `Cn1ncc2c(N3CCN(CCC(N)=O)CC3)nc(C3CCCC3)nc21`, the cytotoxicity at 70.5 h is -9.84%.
Turning to `O=c1c(CN2CCCCC2)coc2ccc(Cl)cc12`, the cytotoxicity at 70.5 h was -7.22%.
As for `COC(=O)c1ccc(CNC(=O)Cc2csc(C(C)=O)c2)cc1`, the figure is 4.17%; as for `CCCc1nccn1-c1cccc(C(C)O)c1` (stereo not drawn), -2.3%; as for `CNc1ncc(CN(C)c2nc(C)c3ccc(S(C)(=O)=O)cc3n2)cn1`, -6.87%.
As for `CCc1nc(C)c(CN2CCCC(c3nn(C)c(=O)n3CC)C2)[nH]1` (stereo not drawn), the figure is -6.96%; as for `CCCn1ncc(C(=O)N2CCN(C3Cc4ccccc4C3)CC2)c1C`, -0.105%; as for `CN(Cc1nc(-c2cccnc2)no1)C(=O)c1c2c(nn1C)CCCC2`, -1.52%.
As for `Cc1nccn1CCC(=O)N1CCCN(c2ccccc2)CC1`, the figure is -6.92%; as for `COc1cc(C)c(C2CC(=O)NCc3nc4sccn4c32)cc1C` (stereo not drawn), -18%.
Regarding `Cc1ocnc1C(=O)N1CCN(Cc2ccccc2)[C@@H]2CS(=O)(=O)C[C@@H]21`, the cytotoxicity at 70.5 h is -9.03%.
`O=C(c1scc2c1OCCO2)N1CCOC(CCc2ccccc2)C1` (stereo not drawn): the cytotoxicity at 70.5 h is 1.27%.
Consider `CN(C)c1nc(NCCc2ccnn2C)ncc1F`, for which the cytotoxicity at 70.5 h was found to be 23.5%.
As for `Cc1cc(C(=O)N2C[C@@H](C(=O)O)[C@H](C(C)C)C2)cs1`, the figure is -2.46%.
The value for `O=C(C1CCC1)N1CCC(C(=O)N2CCC(c3ccc(F)cc3)C2)CC1` (stereo not drawn) was 3.33%; that for `CCCc1ccc(CN2CCN(c3ncccn3)[C@@H]3CS(=O)(=O)C[C@@H]32)o1` was -8.8%; that for `COCCc1noc(Cn2ccc3ncccc3c2=O)n1` was -7.6%.
As for `Cc1nonc1C1CCCN1CCC(=O)N1CCc2ccccc2C1` (stereo not drawn), the figure is 24.4%; as for `CCCn1ccnc1CN1CCC(Oc2cccc(F)c2)(C(=O)O)CC1`, -11%; as for `CC(Cn1cnc2cn(C)nc2c1=O)Oc1cccnc1` (stereo not drawn), 20.4%.
On to `COc1cccc(CN2CCCC3(CCN(C(CO)CO)C3)C2)c1` (stereo not drawn), for which the cytotoxicity at 70.5 h was -7.1%.
As for `CC(O)c1cn(CC2CCN(C(=O)c3cccc(N(C)C)c3)CC2)nn1` (stereo not drawn), the cytotoxicity at 70.5 h was -4.18%.
The value for `CC(C)(C)N1CC(C(=O)NCc2nc(C3CCCCC3)no2)CC1=O` (stereo not drawn) was -4.38%; that for `CS(=O)(=O)CCC(=O)N1C[C@@H]2CC[C@H](C1)N(Cc1ccccn1)C2=O` was 14.6%.
With `Cc1cccnc1NCCNc1cc(C(C)C)nc2ccnn12`, the cytotoxicity at 70.5 h was -11.6%.
The value for `CN(C)c1ccc(CN2CCC(C(O)Cc3ccccc3)CC2)cn1` (stereo not drawn) was -3.93%; that for `c1cn(Cc2nnc(C3CCN(C4CCNCC4)CC3)n2C2CC2)cn1` was -1.79%; that for `CN(C(=O)CSc1ccccn1)C1CCCN(CCc2ccccc2)C1` (stereo not drawn) was -7.26%.
`CCCN1CC2(CCN(c3ccc(C(C)=O)cn3)CC2)CC1C(=O)O` (stereo not drawn): the cytotoxicity at 70.5 h was -9.66%.
As for `CCC1C=CCN1C(=O)c1cc(COc2ccccc2OC)[nH]n1` (stereo not drawn), the figure is -11.7%; as for `COc1ccc(CN2CCN(C3CCc4ccccc4C3)CC2)cc1O` (stereo not drawn), 3.2%.
Take `C[C@@H]1CN(C(=O)C2CCS(=O)(=O)CC2)C[C@@]1(O)C1CC1`: the cytotoxicity at 70.5 h was -19.6%.
As for `Cc1ccc2c(c1)cc(CN1CC[C@](C)(O)[C@H](C)C1)n2C`, the cytotoxicity at 70.5 h was -0.93%.
As for `CC(C)c1noc(-c2ccc(NCc3noc(C(C)C)n3)nc2)n1`, the figure is -5.44%.
For the molecule `Cc1csc(S(=O)(=O)N2CCN(C)C3(CCC(=O)N(C)CC3)C2)c1` (stereo not drawn), the cytotoxicity at 70.5 h was -11.5%.
With `Cc1cc(C)n(CC(C)NCc2nncn2C2CCCCC2)n1` (stereo not drawn), the cytotoxicity at 70.5 h was -7.66%.
On to `Cc1ncc(CC(=O)N2CCCC(COc3ccccc3F)C2)c(=O)[nH]1` (stereo not drawn), for which the cytotoxicity at 70.5 h was -9.07%.
Turning to `CN1CC2(CCN(C(=O)c3ccc4nonc4c3)CC2)CC1=O`, the cytotoxicity at 70.5 h is -11.3%.
The value for `Cc1ncsc1CCN(C)C(=O)CN1CCCCCC1=O` was -2.38%; that for `O=C1NCC2(CCCN(c3ncnc4c3CCC4)CC2)O1` (stereo not drawn) was 2.31%; that for `CCc1ccc2nc(C)cc(C(=O)NC3CCC(=O)N(C)C3)c2c1` (stereo not drawn) was -4.56%.
`Cc1cc(C(F)(F)F)nc(CCNC(C)Cn2nc(C)cc2C)n1` (stereo not drawn): the cytotoxicity at 70.5 h is -16.8%.
As for `Cc1ccc(S(N)(=O)=O)cc1C(=O)N1CCc2c(ncnc2N(C)C)C1`, the figure is 0.0385%; as for `CCOCCC(=O)NCC1CCCO1` (stereo not drawn), -6.72%; as for `CCN(CC)CCn1ccnc1-c1cccc(C#N)c1`, -4.77%.
As to `CCn1c(CC2CCN(S(=O)(=O)c3cccs3)CC2)nn(C)c1=O`, the cytotoxicity at 70.5 h was 10.6%.
As for `Cc1nnc(SCCNC(=O)Cn2cnc3ccccc3c2=O)s1`, the figure is -4.19%.
As for `CCC[C@H]1CN(C(=O)c2cc(-c3cccs3)n(C)n2)C[C@@H]1N`, the figure is -0.00623%; as for `Cc1nsc(NC(=O)N2CCCC2C)n1` (stereo not drawn), 2.78%.
The value for `CCC(=O)N1CCCC(Cn2cc(-c3ccc(F)cc3)nn2)C1` (stereo not drawn) was -6.83%.
Consider `COc1ccccc1-c1ccc(NCc2cn3c(n2)SCC3)nn1`, for which the cytotoxicity at 70.5 h was -7.12%.
The value for `O=C(c1ccc(=O)[nH]c1)N1CCc2c(nc(-c3cccnc3)[nH]c2=O)C1` was -3.02%; that for `O=C1CCc2ccccc2N1CCCn1cnnn1` was -7.93%; that for `COCCCN(Cc1cnc(N2CCCC2)nc1)C1CCN(C)CC1` was -20.3%.
Consider `Cc1cnc(CNCc2cnc(-c3ccccc3C)s2)cn1`, for which the cytotoxicity at 70.5 h was -1.03%.
As for `CCN(Cc1noc(CC(C)C)n1)Cc1cc2ccc(F)cc2[nH]c1=O`, the figure is 0.157%.
The value for `COc1cccc(OCC(=O)N2CCC3(CC2)[C@H](O)C[C@@H]3OC)c1` was -5.93%; that for `Cc1ccnn1CCC(=O)N1CCOC(CCc2ccccc2)C1` (stereo not drawn) was -7.51%; that for `COCCCN1CC2(CCN(Cc3cc(C(C)C)no3)CC2)CC1=O` was 0.169%.
As for `N#Cc1cccc(N2CCCC3(CCC(=O)N(C4CCCC4)C3)C2)n1` (stereo not drawn), the figure is 4.95%.
On to `CN(C)C(=O)c1noc2c1CN(C(=O)CCCN1CCCCC1)CC2`, for which the cytotoxicity at 70.5 h was 10.8%.
With `CCC/C=C/c1ccc(CN2CCN(C)CC2)cn1`, the cytotoxicity at 70.5 h amounted to 26%.
Turning to `CN(C)CCN1CC(C(=O)N2CCC(c3cc(=O)[nH]cn3)CC2)CC1=O` (stereo not drawn), the cytotoxicity at 70.5 h was found to be 3.73%.
Consider `O=C(Nc1ccc(S(=O)(=O)Nc2ccccc2)cc1)N1CCCC1`, for which the cytotoxicity at 70.5 h was -11.6%.
As for `CCCN1CCC(CC(=O)N(C)CC(=O)c2ccc(O)cc2)CC1`, the figure is -12.2%; as for `CO[C@H]1CN(C(=O)c2ccc(-c3cc[nH]n3)cc2)CC[C@H]1N`, -8.35%.
Turning to `CCOc1cc(CNCc2cnc(C)cn2)c(Cl)cc1OC(C)C`, the cytotoxicity at 70.5 h was determined as 3.1%.
The value for `Cc1ocnc1C(=O)N[C@H]1CN(CC2CCC2)C[C@@H]1C(C)C` was -1.41%.
As for `CC1(C)CN(c2cc(C3CC3)ncn2)C[C@]1(C)O`, the figure is 21.7%; as for `CN(C)C(C(=O)N1CCSCC1)c1ccccc1F` (stereo not drawn), -5.06%.
In the case of `Cc1cc(C(=O)N2C[C@H](C(C)C)[C@@H](N(C)C)C2)cs1`, the cytotoxicity at 70.5 h was -2.9%.
The value for `COc1ccc(OC2CCN(C(=O)c3cnc(C)s3)CC2)cc1` was -4.93%; that for `COc1ccc(N2CCN(C(=O)CCCc3cn[nH]c3)CC2=O)cc1` was 24.3%; that for `COc1cc(-n2cc(CCO)cn2)ccc1NC(C)=O` was -9.17%.
The value for `COC(=O)c1cc(C)nc(N2CCN(Cc3cc(C(C)C)no3)CC2)n1` was -12.8%; that for `Cc1nc(NCCc2noc(C3CCCO3)n2)c2sccc2n1` (stereo not drawn) was 49.7%.
The value for `Cc1nc(C)c(C(=O)N2C[C@@H](C(=O)O)[C@H](C3CC3)C2)s1` was -1.71%; that for `CCC(=O)N1CCN(C(=O)Nc2cccc(C#N)c2)[C@H]2CS(=O)(=O)C[C@H]21` was -15.6%.
With `CCCc1cc(C(=O)N2CCC3(CCCN(CCO)C3=O)C2)cs1` (stereo not drawn), the cytotoxicity at 70.5 h was -0.486%.
For the molecule `CCNC(=O)[C@@H]1C[C@@H](N)CN1Cc1ccc(Sc2ccc(C)cc2)o1`, the cytotoxicity at 70.5 h is -4.77%.
The value for `Cc1nc(CNC(=O)c2cc(COc3ccccc3F)[nH]n2)n[nH]1` was 17.2%.
